Measured values reported in PMC4769088, “Antifungal Activity and Action Mechanism of Histatin 5-Halocidin Hybrid Peptides against Candida ssp” (PLoS ONE, 2016).
Where a SMILES comes first, the peptide text is derived from it. Bridges are numbered along the chain shown (N, C = ends). Roman numbers before positions name the chains, in order.

Test system: pustulan (β-1,6-glucan polymer), C. albicans cell wall component
Assay: Binding/radial diffusion assay with pustulan
Type: cell-based
Conditions: peptide final 180 μg/ml, pre-incubated 2 h at 37°C, radial diffusion assay
Protocol: The candidacidal activities of the peptides were tested by using standard microdilution plate assays, radial diffusion assays and broth dilution assay slightly modified from the procedure recommended by the National Committee for Clinical Laboratory Standards. For the candidacidal assays, C. albicans cells were grown in YPD medium and washed twice with 10 mM sodium phosphate buffer (NaPB; Na2HPO4, NaH2PO4, pH 7.4). The cells (1 x 10^6) were then mixed with different concentrations of peptides and incubated at 30°C with constant shaking for 60 min. For energy depletion experiments, cells were pre-incubated with 10 mM NaPB containing 5 mM NaN3 at 30°C for 60 min before the addition of peptides. The cell suspensions were diluted in 10 mM NaPB and aliquots of 500 cells were spread onto YPD agar plates then incubated for 24 h at 30°C to visualize the surviving colonies. Cell survival was expressed as a percentage of that for the control, and the loss of viability was calculated as [1 x (number of colonies from peptide-treated cells/number of colonies from control cells)] x 100. […] The clear-zone diameters were measured to the nearest 0.1 mm and graphed against the peptide concentration. […] The numbers of yeasts were counted using a hemocytometer. […] The antifungal activities were evaluated after 24 h of incubation at 30°C by the observation of visible turbidity the wells. […]

Row | Structure (SMILES) | pustulan concentration at which activity began to decrease
1 | CC(C)C[C@H](NC(=O)CNC(=O)[C@H](Cc1c[nH]cn1)NC(=O)[C@H](Cc1c[nH]cn1)NC(=O)[C@H](CC(C)C)NC(=O)[C@H](CC(C)C)NC(=O)[C@H](C)NC(=O)[C@H](CC(N)=O)NC(=O)[C@H](CC(C)C)NC(=O)[C@@H](N)Cc1c[nH]c2ccccc12)C(=O)N[C@@H](CC(N)=O)C(=O)N[C@@H](CSSC[C@H](NC(=O)[C@H](CC(N)=O)NC(=O)[C@H](CC(C)C)NC(=O)CNC(=O)[C@H](Cc1c[nH]cn1)NC(=O)[C@H](Cc1c[nH]cn1)NC(=O)[C@H](CC(C)C)NC(=O)[C@H](CC(C)C)NC(=O)[C@H](C)NC(=O)[C@H](CC(N)=O)NC(=O)[C@H](CC(C)C)NC(=O)[C@@H](N)Cc1c[nH]c2ccccc12)C(=O)N[C@@H](C)C(=O)N[C@@H](CCCCN)C(=O)NCC(=O)N[C@H](C(=O)N[C@@H](CC(C)C)C(=O)N[C@@H](C)C(N)=O)C(C)C)C(=O)N[C@@H](C)C(=O)N[C@@H](CCCCN)C(=O)NCC(=O)N[C@H](C(=O)N[C@@H](CC(C)C)C(=O)N[C@@H](C)C(N)=O)C(C)C [di-18Hc, reference compound] (I: H-WLNALLHHGLNCAKGVLA-NH2 / II: H-WLNALLHHGLNCAKGVLA-NH2; disulfide I:12-II:12 (inferred); N-terminus assumed) | 20 mg/mL
2 | CC(C)C[C@H](NC(=O)[C@@H](N)Cc1c[nH]c2ccccc12)C(=O)N[C@@H](CC(N)=O)C(=O)N[C@@H](C)C(=O)N[C@@H](CCCCN)C(=O)N[C@@H](CCCNC(=N)N)C(=O)N[C@@H](Cc1c[nH]cn1)C(=O)N[C@@H](Cc1c[nH]cn1)C(=O)NCC(=O)N[C@@H](Cc1ccc(O)cc1)C(=O)N[C@@H](CCCCN)C(=O)N[C@@H](CSSC[C@H](NC(=O)[C@H](CCCCN)NC(=O)[C@H](Cc1ccc(O)cc1)NC(=O)CNC(=O)[C@H](Cc1c[nH]cn1)NC(=O)[C@H](Cc1c[nH]cn1)NC(=O)[C@H](CCCNC(=N)N)NC(=O)[C@H](CCCCN)NC(=O)[C@H](C)NC(=O)[C@H](CC(N)=O)NC(=O)[C@H](CC(C)C)NC(=O)[C@@H](N)Cc1c[nH]c2ccccc12)C(=O)N[C@@H](CCCCN)C(=O)N[C@@H](Cc1ccccc1)C(=O)N[C@@H](Cc1c[nH]cn1)C(N)=O)C(=O)N[C@@H](CCCCN)C(=O)N[C@@H](Cc1ccccc1)C(=O)N[C@@H](Cc1c[nH]cn1)C(N)=O [di-WP2] (I: H-WLNAKRHHGYKCKFH-NH2 / II: H-WLNAKRHHGYKCKFH-NH2; disulfide I:12-II:12 (inferred); N-terminus assumed) | 20 mg/mL
